Results on three compounds are retold here after patent publication US20230357440A1, “BISPECIFIC ANTIBODY AGAINST CD3 AND CD20 IN COMBINATION THERAPY FOR TREATING FOLLICULAR LYMPHOMA” (GENMAB A/S, priority 2020, published 2023).

The subject of series [1] is previously untreated follicular lymphoma. In words: Phase 1b study of epcoritamab in combination with rituximab and bendamustine (BR). Format: in vivo. The method, then:
The Part 1 dose escalation assesses the initial safety, tolerability, and clinical activity of epcoritamab in combination with BR. Epcoritamab is initially be administered in combination with BR in a 3-subject cohort. DLTs are evaluated during the first 28 days. Depending on the number of DLTs observed in the initial 3 subjects, administration of epcoritamab (full dose: 48 mg or 24 mg) in combination with BR is performed in an additional 3 patients as shown in FIG. 3.
In Part 2, epcoritamab is administered (with the dosing regimen determined in the dose escalation part) in combination with BR. The expansion will include 20 subjects in order to evaluate the preliminary clinical activity of the combination, in addition to safety, tolerability, PK, pharmacodynamic, and immunogenicity data.
A step-up dosing method is used for epcoritamab to mitigate the potential for CRS: priming dose (0.16 mg) on cycle 1 day 1, followed by intermediate dose (0.8 mg) on cycle 1 day 8, full dose (24 mg or 48 mg) on cycle 1 day 15 and day 22, and full dose in subsequent cycles. […] Bendamustine (90 mg/m^2) is administered intravenously daily on days 1 and 2 of cycles 1-6. If bendamustine is started later than day 1 of a cycle, then planned day 1 of the next cycle is calculated from the day when bendamustine was actually initiated in order to maintain the regular cycle interval of 28 days. […]
Safety is assessed by measuring adverse events, laboratory test results, ECGs, vital sign measurements, physical examination findings, and ECOG performance status. Also assessed are immune effector cell-associated neurotoxicity syndrome (e.g., as described by Lee et al., Biol BloodMarrow Transplant 2019; 25:625-638), constitutional symptoms (B symptoms), tumor flare reaction, and survival.

In series [2] the test system is primary DLBCL and follicular lymphoma patient biopsies. The following applies: cited from earlier work.
The subject of series [3] is CD20-expressing Raji-luc tumor cells. To be noted: even in the presence of an excess of rituximab variant with inert Fc domain (IgG1-RTX-FEAR); cited from earlier work.
Series [4] relates to T cells isolated from human healthy donor buffy coats. Kind of series: in vitro T-cell activation assay (flow cytometry; CD69, CD25, CD107/LAMP-1). It is filed as cell-based. The protocol:
(§1) Bendamustine, an alkylating agent that causes intra- and inter-strand crosslinks between DNA bases, is approved for treatment of CLL and indolent B-NHL. This experiment was performed to determine whether bendamustine impacts the anti-tumor activity of epcoritamab by using in vitro T-cell activation and cytotoxicity assays.
(§2) Briefly, Human Burkitt lymphoma (Raji [ATCC, cat. no. CCL-86]) and DLBCL (SU-DHL-4 [Deutsche Sammlung von Mikroorganismen und Zellkulturen—DSMZ, cat. no. ACC-495]) cell lines were used as target cells. Cells were cultured in culture medium (RPMI 1640 with HEPES and L-Glutamine supplemented with 10% heat-inactivated donor bovine serum with iron, and 1% [v/v] penicillin/streptomycin) to which 2 mM L-glutamine, and 1 mM sodium pyruvate were added, at 37° C., 5% CO2. T cells, which were isolated from human healthy donor buffy coats by negative selection using the RosetteSep™ Human T Cell Enrichment Cocktail (Stemcell Technologies) followed by density centrifugation over a Ficoll gradient, both according to the manufacturer's instructions, were used as effector cells. Isolated cells were washed twice in phosphate buffered saline (PBS) and counted using acridine orange/propidium iodide (AO/PI) viability staining solution (Nexcelom Bioscience) on a Cellometer® Auto 2000 Cell Viability Counter. T cells (100,000 cells/well) were incubated with Raji or SU-DHL-4 cells (50,000 cells/well) in culture medium in the presence of epcoritamab (0.033 pg/mL-333 ng/mL) and bendamustine (0-20 μM) at 37° C., 5% CO2 for 48 hours. B-cell viability and T-cell activation were measured by flow cytometry (count of CD22-positive cells; expression of the activation markers CD69, CD25, and CD107 [LAMP-1] on CD4+ and CD8+ T cells). The percentage cytotoxicity was calculated as follows: […]
Background: A flow cytometer gives signals particle by particle.

The test system of series [5] is relapsed/refractory (R/R) B-NHL. In words: epcoritamab monotherapy clinical trial in R/R B-NHL (NCT03625037). Format: in vivo, human. To be noted: R/R B-NHL patients, preliminary data. From the text: Epcoritamab as monotherapy is currently in a clinical trial for the treatment of relapsed/refractory (R/R) B-NHL (ClinicalTrials.gov Identifier: NCT03625037).
For series [6], the system named is double-refractory follicular lymphoma. The following applies: Salles et al., Haematologica 2017; cited from earlier work.
The subject of a further series is DLBCL SU-DHL-4 cells. Format: cell-based, human. To be noted: no epcoritamab, bendamustine 0-20 μM, 48 hours. The protocol: as §1
as §2, with “T cells, which were isolated from human healthy donor buffy coats by negative selection using the RosetteSep™ Human T Cell Enrichment Cocktail (Stemcell Technologies) followed by density centrifugation over a Ficoll gradient, both according to the manufacturer's instructions, were used as effector cells.” left out, “T cells (100,000 cells/well) were incubated with Raji or SU-DHL-4 cells (50,000 cells/well) in culture medium in the presence of epcoritamab (0.033 pg/mL-333 ng/mL) and bendamustine (0-20 μM) at 37° C., 5% CO2 for 48 hours.” left out

The subject of series [7] is Human Burkitt lymphoma Raji cells. It is filed as cell-based. To be noted: no epcoritamab, bendamustine 0-20 μM, 48 hours. The protocol: as §1
as §2, with “T cells, which were isolated from human healthy donor buffy coats by negative selection using the RosetteSep™ Human T Cell Enrichment Cocktail (Stemcell Technologies) followed by density centrifugation over a Ficoll gradient, both according to the manufacturer's instructions, were used as effector cells.” left out, “T cells (100,000 cells/well) were incubated with Raji or SU-DHL-4 cells (50,000 cells/well) in culture medium in the presence of epcoritamab (0.033 pg/mL-333 ng/mL) and bendamustine (0-20 μM) at 37° C., 5% CO2 for 48 hours.” left out

Consider “epcoritamab: IgG1 bispecific CD3×CD20 antibody, heavy/light chains SEQ ID NOs: 24, 25 and 26, 27; CAS 2134641-34-0”, for which the “responders in expansion phase” value in series [1] (48 mg expansion, as of Sep. 8, 2021, preliminary, non-validated data) came to 1. Besides, the “responders in dose escalation phase” value in series [1] (as of Sep. 8, 2021, 17 patients dosed in total, preliminary, non-validated data) was determined as 5. In series [1] (preliminary data), the “grade of all CRS events” value is given as “Grade ½”; the “most common related AEs” value is “CRS and Nausea”. Further, the tumor cell kill entry in series [2] (biopsy taken 2 weeks after administering the anti-CD20 antibody) is reported as “up to 40%”. Besides, the “T-cell-mediated cytotoxicity in patient biopsies” value in series [2] is given as “induced T-cell-mediated cytotoxicity”. Also, the “tumor growth in the xenograft model” value in series [3] was “effectively reduce tumor growth”. Moreover, the “epcoritamab-induced T-cell activation in the presence of bendamustine” value in series [4] (bendamustine 0-20 μM, Raji or SU-DHL-4 cells, 48 hours) was “not affected by the presence of bendamustine at all concentrations tested”. Moreover, in series [4] (bendamustine 0-20 μM, data not shown), the “upregulation of T-cell activation markers on CD4+ T cells in the presence of bendamustine” value is recorded as “not affected by bendamustine”. Also, in series [4] (in presence of Raji or SU-DHL-4 cells, epcoritamab 0.033 pg/mL-333 ng/mL, 48 hours), the “activation of CD8+ T cells (upregulation of CD69, CD25 and LAMP-1)” value is reported as “concentration-dependent activation of CD8+ T cells”. Also, the dose-limiting toxicities result in series [5] is listed as “no dose-limiting toxicities reported”. Besides, the tolerated dose result in series [5] (up to at least 48 mg, including 60 mg) is on record as “at least 48 mg”.
`CC[C@H](Nc1ncnc2[nH]cnc12)c1nc2cccc(F)c2c(=O)n1-c1ccccc1` [idelalisib]: in series [6], the “1-year PFS” value was 43% and the toxicities result was “several toxicities leading to treatment discontinuation”.
As for `Cn1c(CCCC(=O)O)nc2cc(N(CCCl)CCCl)ccc21` [bendamustine, 4-[5-[Bis(2-chloroethyl)amino]-1-methyl-iH-benzo[d]imidazole-2-yl]butanoic acid], the “number of viable B cells, bendamustine alone” value (with DLBCL SU-DHL-4 cells; in series [7]) was “decreased the number of viable B cells in a dose dependent manner” in each case.
